{"source": "patent US12383545B1", "about": "“Treatment of migraine” (priority 2018, dated 2025)", "key": {"[1]": {"test_system": "participants with episodic migraine", "experiment": "Study A: Headache Impact Test (HIT-6)", "type": "in vivo, human", "details": "for HIT-6 change from baseline to week 12, MMRM LS mean change (SE) / HIT-6 change from baseline to week 12, mean (SD) / HIT-6 score, Week 12, mean (SD): mITT", "method": "In embodiments, the present disclosure provides a method for preventing migraine (such as a method for preventing migraine in patients having fewer than fifteen migraine days per month) wherein atogepant is administered in an amount of 10 mg QD, 30 mg QD, or 60 mg QD, wherein administration of atogepant results in a reduction in a 6-item Headache Impact Test (HIT-6) disability score relative to baseline. The Headache Impact Test (HIT-6) is a well-known tool for assessing migraine intensity, and uses six questions to measure the adverse impact of headache on, for example, social functioning, role functioning, vitality, cognitive functioning, and psychological distress. Responses are based on frequency using a 5-point verbal response scale ranging from “never” to “always”. The HIT-6 total score is the sum of the responses, and ranges from 36 to 78. See Yang et al., Validation of the Headache Impact Test (HIT-6™) Across Episodic and Chronic Migraine, Cephalalgia 2011 February; 31 (3): 357-367. In embodiments, treatment with atogepant results in a greater than five (≥5) point decrease in HIT-6 disability score.\nThe Headache Impact Test (HIT-6, completed monthly) represented an additional exploratory measure. The HIT-6 test is a well-known tool for assessing migraine intensity that uses six questions to capture the impact of headache and its treatment on an individual's functional health and well-being. HIT-6 was completed monthly and was evaluated as the change from baseline in HIT-6 total score at weeks 4, 8, and 12."}, "[2]": {"test_system": "participants with episodic migraine", "experiment": "Study B: MSQ v2.1 domain score over 52 weeks", "type": "in vivo, human", "details": "Role Function-Restrictive (RFR) domain, atogepant 60 mg, mITT Population", "from_the_text": "The Migraine-Specific Quality of Life Questionnaire Version 2.1 is one of the most frequently utilized disease-specific tools assessing the impact of migraine on HRQL. The MSQ is a validated tool that assess the impact of migraine on function (i.e., daily social and work-related activities) over the past 4 weeks across three dimensions: Role Function-Restrictive (RR, or “RFR”, relating to how migraines limit the patient's daily social and work related activities), Role Function-Preventive (RP, e.g., how migraines prevent the patient's daily social and work related activities), and Emotional Function (EF, e.g., the emotions associated with a patient's migraines). Patients respond to items using a 6-point scale: “none of the time,” “a little bit of the time,” “some of the time”, “a good bit of the time,” “most of the time” and “all of the time,” which are assigned scores of 1 to 6, respectively. Raw dimension scores are computed as a sum of item responses and rescaled from a 0 to 100 scale such that higher scores indicate better quality of life. See Bagley et al., Validating Migraine-Specific Quality of Life Questionnaire v2.1 in Episodic and Chronic Migraine, Headache, 2012 March; 52 (3): 409-21.\nThe Migraine-Specific Quality of Life Questionnaire version 2.1 (MSQv2.1) Role Function-Restrictive (RFR) domain least squares (LS) mean (standard error [SE]) at baseline was 48.1 (20.26) and LS mean changes from baseline throughout the trial are shown in FIG. 17 and in Table 32. Findings indicated rapid improvement over the first 12 weeks and sustained improvement from 12 to 52 weeks, and non-zero confidence intervals throughout indicate significant improvement at each timepoint assessed."}}}
{"compound": "C[C@@H]1[C@H](c2c(F)ccc(F)c2F)C[C@H](NC(=O)c2cnc3c(c2)C[C@@]2(C3)C(=O)Nc3ncccc32)C(=O)N1CC(F)(F)F", "note": "[atogepant]", "values": [{"measurement": "HIT-6 change to week 12, LSMD vs placebo (95% CI)", "setting": "[1]; 10 mg QD", "value": "−3.2"}, {"measurement": "HIT-6 responders (≥5 point reduction), n/N (%)", "setting": "[1]; 10 mg QD, Week 4", "value": "(48.6) %"}, {"measurement": "HIT-6 responders, odds ratio vs. placebo (95% CI)", "setting": "[1]; 10 mg QD, Week 4", "value": 1.53}, {"measurement": "HIT-6 responders (≥5 point reduction), n/N (%)", "setting": "[1]; 10 mg QD, Week 8", "value": "(60.4) %"}, {"measurement": "HIT-6 responders, odds ratio vs. placebo (95% CI)", "setting": "[1]; 10 mg QD, Week 8", "value": 1.79}, {"measurement": "HIT-6 responders (≥5 point reduction), n/N (%)", "setting": "[1]; 10 mg QD, Week 12", "value": "(64.5) %"}, {"measurement": "HIT-6 responders, odds ratio vs. placebo (95% CI)", "setting": "[1]; 10 mg QD, Week 12", "value": 1.74}, {"measurement": "HIT-6 change from baseline to week 12, MMRM LS mean change (SE)", "setting": "[1]; 10 mg QD", "value": "−8.4"}, {"measurement": "HIT-6 change from baseline to week 12, mean (SD)", "setting": "[1]; 10 mg QD", "value": "−8.3"}, {"measurement": "HIT-6 score, Week 12, mean (SD)", "setting": "[1]; 10 mg QD", "value": 55.8}, {"measurement": "HIT-6 change to week 12, LSMD vs placebo (95% CI)", "setting": "[1]; 30 mg QD", "value": "−2.9"}, {"measurement": "HIT-6 responders (≥5 point reduction), n/N (%)", "setting": "[1]; 30 mg QD, Week 4", "value": "(46.8) %"}, {"measurement": "HIT-6 responders, odds ratio vs. placebo (95% CI)", "setting": "[1]; 30 mg QD, Week 4", "value": 1.43}, {"measurement": "HIT-6 responders (≥5 point reduction), n/N (%)", "setting": "[1]; 30 mg QD, Week 8", "value": "(62.2) %"}, {"measurement": "HIT-6 responders, odds ratio vs. placebo (95% CI)", "setting": "[1]; 30 mg QD, Week 8", "value": 1.95}, {"measurement": "HIT-6 responders (≥5 point reduction), n/N (%)", "setting": "[1]; 30 mg QD, Week 12", "value": "(62.7) %"}, {"measurement": "HIT-6 responders, odds ratio vs. placebo (95% CI)", "setting": "[1]; 30 mg QD, Week 12", "value": 1.54}, {"measurement": "HIT-6 change from baseline to week 12, MMRM LS mean change (SE)", "setting": "[1]; 30 mg QD", "value": "−8.1"}, {"measurement": "HIT-6 change from baseline to week 12, mean (SD)", "setting": "[1]; 30 mg QD", "value": "−8.1"}, {"measurement": "HIT-6 score, Week 12, mean (SD)", "setting": "[1]; 30 mg QD", "value": 56.1}, {"measurement": "HIT-6 change to week 12, LSMD vs placebo (95% CI)", "setting": "[1]; 60 mg QD", "value": "−4.0"}, {"measurement": "HIT-6 responders (≥5 point reduction), n/N (%)", "setting": "[1]; 60 mg QD, Week 4", "value": "(56.2) %"}, {"measurement": "HIT-6 responders, odds ratio vs. placebo (95% CI)", "setting": "[1]; 60 mg QD, Week 4", "value": 2.18}, {"measurement": "HIT-6 responders (≥5 point reduction), n/N (%)", "setting": "[1]; 60 mg QD, Week 8", "value": "(64.7) %"}, {"measurement": "HIT-6 responders, odds ratio vs. placebo (95% CI)", "setting": "[1]; 60 mg QD, Week 8", "value": 2.25}, {"measurement": "HIT-6 responders (≥5 point reduction), n/N (%)", "setting": "[1]; 60 mg QD, Week 12", "value": "(65.2) %"}, {"measurement": "HIT-6 responders, odds ratio vs. placebo (95% CI)", "setting": "[1]; 60 mg QD, Week 12", "value": 1.77}, {"measurement": "HIT-6 change from baseline to week 12, MMRM LS mean change (SE)", "setting": "[1]; 60 mg QD", "value": "−9.2"}, {"measurement": "HIT-6 change from baseline to week 12, mean (SD)", "setting": "[1]; 60 mg QD", "value": "−9.9"}, {"measurement": "HIT-6 score, Week 12, mean (SD)", "setting": "[1]; 60 mg QD", "value": 54.5}, {"measurement": "Change from Baseline in MSQ v2.1 Domain Score, LS Mean Δ from baseline", "setting": "[2]; Week 12", "value": 30.02}, {"measurement": "Change from Baseline in MSQ v2.1 Domain Score, LS Mean Δ from baseline", "setting": "[2]; Week 24", "value": 30.79}, {"measurement": "Change from Baseline in MSQ v2.1 Domain Score, LS Mean Δ from baseline", "setting": "[2]; Week 36", "value": 32.34}, {"measurement": "Change from Baseline in MSQ v2.1 Domain Score, LS Mean Δ from baseline", "setting": "[2]; Week 48", "value": 34.32}, {"measurement": "Change from Baseline in MSQ v2.1 Domain Score, LS Mean Δ from baseline", "setting": "[2]; Week 52", "value": 34.70}]}
